Measured values reported in patent publication US20080274121A1, “Inhibition of Angiogenesis by Mithramycin” (priority 2007, published 2008).

Key:
Sp1, VEGF, CD31 (MVD) = test: Gene expression and microvessel formation in PANC-1 tumor tissues; format: in vivo, nude mice
Experimental: FIG. 13. Analysis of gene expression and microvessel formation in tumor tissues. The tumor tissues described in FIG. 2 were collected and processed as described in Materials and Methods. A, total protein lysates were harvested from tumor tissues, and the level of protein expression was determined using Western blot analysis. Equal protein-sample loading was monitored by probing the same membrane filter with an anti-β-actin antibody. NS, nonspecific. B, the levels of Sp1 and VEGF expression were quantitated and expressed as fold change. C, MVD was quantitated according to CD31 staining. D, immunohistochemical staining was performed using specific antibodies against Sp1, VEGF, and CD31. Representative photos of the stains are shown.
Western blot analysis. Whole-cell lysates were prepared from human pancreatic cancer cell lines and tissues (23). Standard Western blotting was performed using polyclonal rabbit antibodies against human and mouse Sp1, VEGF, and EGFR (Santa Cruz Biotechnology, Santa Cruz, Calif.) and the anti-rabbit IgG antibody, a horseradish peroxidase-linked F(ab′)2 fragment obtained from a donkey (Amersham, Arlington Heights, Ill.). Equal protein-sample loading was monitored by probing the same membrane filter with antibodies against anti-β-actin or glyceraldehyde-3-phosphate dehydrogenase (GAPDH) (23). The probe proteins were detected using the Amersham enhanced chemiluminescence system according to the manufacturer's instructions.
Immunohistochemical analysis and quantification of tumor MVD. For CD31 staining, frozen tissue sections (5 μm thick) were fixed in acetone. Endogenous peroxidase in the specimens was blocked using 3% hydrogen peroxide in phosphate-buffered saline (PBS) for 12 minutes. […] For quantification of tumor MVD, vessels on each section were counted in five high-power fields (magnification, ×200 [×20 objective and ×10 ocular]) as described previously (41). […]

BON-1 cells = test: Viable cell count in vitro, BON-1; format: cell-based, human; settings: 0 to 100 μg/ml BVZ, 5 days
Experimental: FIG. 18. Effects of treatment with BVZ and MIT on the growth of and gene expression in human carcinoid cells in vitro. A. H727 and BON-1 cells were incubated for 5 days in a medium alone or a medium containing 25 to 100 μg/ml BVZ. The viable cells were counted. B. H727 cells were incubated for 5 days in a medium alone or a medium containing 100 μg/ml BVZ. Total protein lysates were harvested from the cell cultures, and the level of Sp1 and VEGF protein expression was determined using Western blot analysis. Equal protein-sample loading was monitored by probing the same membrane filter with an anti-GAPDH. C. H727 and BON-1 cells were treated with MIT at concentrations ranging from 0.1 to 2.5 μM for 24 hours. Cytotoxicity was assessed using the MTT assay.
Effects of treatment with BVZ and MIT on the growth of and gene expression in human LGNET cells. To further determine whether treatment with BVZ directly impacts gene expression in LGNET cells, we incubated H727 and BON-1 cells in a medium alone or a medium containing 0 to 100 μg/ml BVZ for 5 days.

bevacizumab [BVZ]
MVD (Sp1, VEGF, CD31 (MVD); CD31 staining, low-dose BVZ or MIT alone): did not significantly reduce MVD
expression of platelet-derived growth factor, IGF-R, and EGFR in tumor tissue (Sp1, VEGF, CD31 (MVD); Western blot, data not shown): upregulated the expression of other proangiogenic molecules
Sp1 and VEGF expression in tumor tissue (Sp1, VEGF, CD31 (MVD); Western blot, mice treated with PBS, BVZ, MIT, or B+M (low doses)): increased expression of Sp1 and its downstream molecule VEGF
cell growth in vitro (BON-1 cells): did not affect the growth
